Reference: US20080261977A1, “Pyrimidine Derivatives as Cannabinoid Receptor Modulators” (priority 2004, published 2008)
Where a name gives a salt, the structure may show the parent alone. Read-outs that look alike come from different tables or passages of the source.

Target: T1, human cannabinoid CB2 receptor (Homo sapiens, UniProt P34972)
T1 construct: expressed in transfected cells; host or cells: Saccharomyces cerevisiae strain MMY23 (cassette integrated at the ura3 locus; chimeric Gpa1/Gαi3)
Assay: Cannabinoid CB2 receptor agonist activity, yeast (Saccharomyces cerevisiae) cells expressing the receptor, FDGlu fluorescence
Format: cell-based
Settings: for Emax: read-out: efficacy (Emax relative to HU210) at the cloned human cannabinoid CB2 receptor
Description: The cannabinoid CB2 receptor agonist activity of the compounds of formula (I) was determined in accordance with the following experimental method.
Yeast (Saccharomyces cerevisiae) cells expressing the human cannabinoid CB2 receptor were generated by integration of an expression cassette into the ura3 chromosomal locus of yeast strain MMY23. This cassette consisted of DNA sequence encoding the human CB2 receptor flanked by the yeast GPD promoter to the 5′ end of CB2 and a yeast transcriptional terminator sequence to the 3′ end of CB2. MMY23 expresses a yeast/mammalian chimeric G-protein alpha subunit in which the C-terminal 5 amino acids of Gpa1 are replaced with the C-terminal 5 amino acids of human Gαi3 (as described in Brown et al. (2000), Yeast 16:11-22). Cells were grown at 30° C. in liquid Synthetic Complete (SC) yeast media (Guthrie and Fink (1991), Methods in Enzymology, Vol. 194) lacking uracil, tryptophan, adenine and leucine to late logarithmic phase (approximately 6 OD600/ml).
Agonists were prepared as 10 mM stocks in DMSO. EC50 values (the concentration required to produce 50% maximal response) were estimated using dilutions of between 3- and 5-fold (BiomekFX, Beckman) into DMSO. Agonist solutions in DMSO (1% final assay volume) were transferred into black, clear bottom, microtitre plates from NUNC (96- or 384-well). Cells were suspended at a density of 0.2 OD600/ml in SC media lacking histidine, uracil, tryptophan, adenine and leucine and supplemented with 10 mM 3-aminotriazole, 0.1M sodium phosphate pH 7.0, and […] fluorescein di-β-D-glucopyranoside (FDGlu). This mixture (50 ul per well for 384-well plates, 200 ul per well for 96-well plates) was added to agonist in the assay plates (Multidrop 384, Labsystems). After incubation at 30° C. for 24 hours, fluorescence resulting from degradation of FDGlu to fluorescein due to exoglucanase, an endogenous yeast enzyme produced during agonist-stimulated cell growth, was determined using a Spectrofluor microtitre plate reader (Tecan; excitation wavelength: 485 nm; emission wavelength: 535 nm). Fluorescence was plotted against compound concentration and iteratively curve fitted using a four parameter fit to generate a concentration effect value. Efficacy (Emax) was calculated from the equation
Emax=Max[compound X]−Min[compound X]/Max[HU210]−Min[HU210]×100%
where Max[compound X] and Min[compound X] are the fitted maximum and minimum respectively from the concentration effect curve for compound X, and Max[HU210] and Min[HU210] are the fitted maximum and minimum respectively from the concentration effect curve for (6aR,10aR)-3-1,1′-Dimethylheptyl)-6a,7,10,10a-tetrahydro-1-hydroxy-6,6-dimethyl-6H-dibenzo[b,d]pyran-9-methanol (HU210; available from Tocris). Equieffective molar ratio (EMR) values were calculated from the equation
Where EC50[compound X] is the EC50 of compound X and EC50[HU210] is the EC50 of HU210.

[1] = yeast agonist assay, read-out: EC50 at the cloned human cannabinoid CB2 receptor

T1 sequence (P34972 whole entry): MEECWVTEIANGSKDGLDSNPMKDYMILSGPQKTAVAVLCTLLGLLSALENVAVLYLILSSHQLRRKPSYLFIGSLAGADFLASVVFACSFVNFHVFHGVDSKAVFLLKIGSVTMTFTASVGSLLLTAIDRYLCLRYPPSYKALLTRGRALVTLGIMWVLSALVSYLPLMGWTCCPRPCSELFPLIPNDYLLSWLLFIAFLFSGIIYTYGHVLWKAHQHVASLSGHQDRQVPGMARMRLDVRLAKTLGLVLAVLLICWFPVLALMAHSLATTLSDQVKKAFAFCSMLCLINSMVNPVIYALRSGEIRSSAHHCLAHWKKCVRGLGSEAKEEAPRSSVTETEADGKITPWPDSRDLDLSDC

| Structure (SMILES) | EC50 [1] [nM] | Emax (yeast agonist assay) [%] | Emax [%] | EC50 [nM] |
| --- | --- | --- | --- | --- |
| FC(F)(F)c1nc(Nc2cccc(Cl)c2)ncc1CNCC1CCCCC1 [Example 12, (3-Chlorophenyl)-{[5-(cyclohexylmethylamino)-methyl]-4-trifluoromethyl-pyrimidin-2yl}-amine] | 300 to 1000 | – | > 50 | – |
| Fc1cccc(Nc2ncc(CNCC3CC3)c(C(F)(F)F)n2)c1 [Example 54, (3-Fluorophenyl)-{5-[(cyclopropylmethylamino)-methyl]-4-trifluoromethyl-pyrimidin-2-yl}-amine,formate] | 300 to 1000 | – | > 50 | – |
| FC(F)(F)c1nc(Nc2ccc(Cl)cc2Cl)ncc1CNCC1CC1 [Example 28, (2,4-Dichlorophenyl)-{5-[(cyclopropylmethylamino)-methyl]-4-trifluoromethyl-pyrimidin-2-yl}-amine] | – | – | > 50 | < 300 |
| CC(C)c1nc(Nc2cccc(Cl)c2)ncc1CNCC1CCCC1 [Example 8, (3-Chloro-phenyl)-{5-[(cyclopentylmethyl-amino)-methyl]-4-isopropyl-pyrimidin-2-yl}-amine hydrochloride] | < 300 | > 50 | – | – |
| Clc1cccc(Nc2ncc(CNC3CCC3)c(C3CC3)n2)c1 [Example 1, (3-Chloro-phenyl)-(5-cyclobutylaminomethyl-4-cyclopropyl-pyrimidin-2-yl)-amine] | < 300 | > 50 | – | – |
| Fc1cccc(Nc2ncc(CN3CCOCC3)c(C(F)(F)F)n2)c1 [Example 56, (3-Fluorophenyl)-(5-morpholin-4-ylmethyl-4-trifluoromethyl-pyrimidin-2-yl)-amine] | 300 to 1000 | – | > 50 | – |
| CCC(C)NCc1cnc(Nc2cccc(Cl)c2)nc1C(F)(F)F (stereo not drawn) [Example 48, [5-(sec-Butylamino-methyl)-4-trifluoromethyl-pyrimidin-2-yl]-(3-chloro-phenyl)-amine, formate] | 300 to 1000 | – | > 50 | – |
| FC(F)(F)c1nc(Nc2ccc(Cl)cc2Cl)ncc1CN1CCOCC1 [Example 35, (2,4-Dichlorophenyl)-(5-morpholin-4-ylmethyl-4-trifluoromethyl-pyrimidin-2-yl)-amine] | – | – | > 50 | < 300 |
| CC(C)CNCc1cnc(Nc2cccc(Cl)c2)nc1C(F)(F)F [Example 11, (3-Chlorophenyl){5-[(isobutylamino)-methyl]-4-trifluoromethyl-pyrimidin-2yl}-amine, formate] | < 300 | > 50 | – | – |
| FC(F)(F)c1nc(Nc2cccc(Cl)c2)ncc1CNC1CCC1 [Example 21, (3-Chlorophenyl)-(5-cyclobutylaminomethyl-4-trifluoromethyl-pyrimidin-2-yl)-amine] | – | – | > 50 | < 300 |
| FC(F)(F)c1nc(Nc2cccc(Cl)c2)ncc1CN1CCOCC1 [Example 14, (3-Chlorophenyl)-(5-morpholin-4-ylmethyl-4-trifluoromethyl-pyrimidin-2-yl)-amine] | – | – | > 50 | < 300 |
| CCCNCc1cnc(Nc2cccc(Cl)c2)nc1C(F)(F)F [Example 19, (3-Chlorophenyl)-(5-propylaminomethyl-4-trifluoromethyl-pyrimidin-2-yl)-amine,formate] | < 300 | > 50 | – | – |
| FC(F)(F)c1nc(Nc2cccc(Cl)c2)ncc1CNCC1CCOCC1 [Example 15, (3-Chlorophenyl)-(5-{[(tetrahydro-pyran-4-ylmethyl)-amino]-methyl}-4-trifluoromethyl-pyrimidin-2-yl)-amine,formate] | < 300 | > 50 | – | – |
| CC(O)CNCc1cnc(Nc2cccc(Cl)c2)nc1C(F)(F)F (stereo not drawn) [Example 52, 1-{[2-(3-Chlorophenylamino)-4-trifluoromethyl-pyrimidin-5-ylmethyl]-amino}-propan-2-ol] | 300 to 1000 | – | > 50 | – |
| COCCNCc1cnc(Nc2cccc(Cl)c2)nc1C(F)(F)F [Example 17, (3-Chlorophenyl)-{5-[(2-methoxy-ethylamino)-methyl]-4-trifluoromethyl-pyrimidin-2-yl}-amine, formate] | < 300 | > 50 | – | – |
| FC(F)(F)c1nc(Nc2cccc(Cl)c2)ncc1CNCCc1ccccc1 [Example 45, (3-Chlorophenyl)-[5-(phenethylamino-methyl)-4-trifluoromethyl-pyrimidin-2-yl]-amine, formate] | 300 to 1000 | – | > 50 | – |
| CC(C)c1nc(Nc2cccc(Cl)c2)ncc1CN1CCOCC1 [Example 6, (3-Chloro-phenyl)-(4-isopropyl-5-morpholin-4-ylmethyl-pyrimidin-2-yl)-amine] | < 300 | > 50 | – | – |
| CC(NC1CC1)c1cnc(Nc2cccc(F)c2)nc1C(F)(F)F (stereo not drawn) [Example 86, (3-Fluorophenyl)-[5-(1-cyclopropylamino-ethyl)-4-trifluoromethyl-pyrimidin-2-yl]-amine] | – | – | > 50 | < 300 |
| FC(F)(F)c1nc(Nc2cccc(Cl)c2)ncc1CN1CCCCC1 [Example 39, (3-Chlorophenyl)-(5-piperidin-1-ylmethyl-4-trifluoromethyl-pyrimidin-2-yl)-amine,formate] | 300 to 1000 | – | > 50 | – |
| FC(F)(F)c1nc(Nc2cccc(Cl)c2)ncc1CNC1CCCCC1 [Example 43, (3-Chlorophenyl)-(5-cyclohexylaminomethyl-4-trifluoromethyl-pyrimidin-2-yl)-amine] | – | – | > 50 | 300 to 1000 |

Now from value to compound, other results behind:

| EC50 [1] [nM] | Emax (yeast agonist assay) [%] | Structure (SMILES) | Emax [%] | EC50 [nM] |
| --- | --- | --- | --- | --- |
| < 300 | > 50 | CC(C)CNC(C)c1cnc(Nc2cccc(F)c2)nc1C(F)(F)F (stereo not drawn) [Example 87, (3-Fluorophenyl)-[5-(1-isobutylamino-ethyl)-4-trifluoromethyl-pyrimidin-2-yl]-amine] | – | – |
| < 300 | > 50 | CC(NCC1CCCC1)c1cnc(Nc2cccc(Cl)c2)nc1C(F)(F)F (stereo not drawn) [Example 90, (3-Chlorophenyl)-{5-[1-(cyclopentylmethyl-amino)-ethyl]-4-trifluoromethyl-pyrimidin-2-yl}-amine, formate] | – | – |
| < 300 | > 50 | FC(F)(F)c1nc(Nc2cccc(Cl)c2)ncc1CNCC1CC1 [Example 25, (3-Chlorophenyl)-{5-[(cyclopropylmethylamino)-methyl]-4-trifluoromethyl-pyrimidin-2-yl}-amine,formate] | – | – |
| < 300 | > 50 | FC(F)(F)c1nc(Nc2ccc(Cl)cc2Cl)ncc1CNCC1CCC1 [Example 29, (2,4-Dichlorophenyl)-{5-[(cyclobutylmethylamino)-methyl]-4-trifluoromethyl-pyrimidin-2-yl}-amine,formate] | – | – |
| < 300 | > 50 | CC(C)CNC(C)c1cnc(Nc2cccc(Cl)c2)nc1C(F)(F)F (stereo not drawn) [Example 92, (3-Chlorophenyl)-[5-(1-isobutylamino-ethyl)-4-trifluoromethyl-pyrimidin-2-yl]-amine, formate] | – | – |
| < 300 | > 50 | CC(C)(C)c1nc(Nc2cccc(Cl)c2)ncc1CNCc1ccc(F)cc1 [Example 100, (4-tert-Butyl-5-[(4-fluoro-benzylamino)-methyl]-pyrimidin-2-yl}-(3-chloro-phenyl)-amine hydrochloride] | – | – |
| < 300 | > 50 | FC(F)(F)c1nc(Nc2cccc(Cl)c2)ncc1CNCc1cccnc1 [Example 31, (3-Chlorophenyl)-(5-{[(pyridin-3-ylmethyl)-amino]-methyl}-4-trifluoromethyl-pyrimidin-2-yl}-amine,formate] | – | – |
| < 300 | > 50 | CCCCNCc1cnc(Nc2cccc(Cl)c2)nc1C(F)(F)F [Example 22, (3-Chlorophenyl)-(5-butylaminomethyl-4-trifluoromethyl-pyrimidin-2-yl)-amine,formate] | – | – |
| < 300 | > 50 | CC(NCC1CCOCC1)c1cnc(Nc2cccc(Cl)c2)nc1C(F)(F)F (stereo not drawn) [Example 88, (3-Chlorophenyl)-(5-{1-[(tetrahydro-pyran-4-ylmethyl)-amino]-ethyl}-4-trifluoromethyl-pyrimidin-2-yl)-amine, formate] | – | – |
| < 300 | > 50 | Fc1cccc(Nc2ncc(CNCC3CCC3)c(C(F)(F)F)n2)c1 [Example 37, (3-Fluorophenyl)-{5-[(cyclobutylmethylamino)-methyl]-4-trifluoromethyl-pyrimidin-2-yl}-amine,formate] | – | – |
